Laboratory results from US10392368B2, “Pyrazolo and triazolo bicyclic compounds as JAK kinase inhibitors” (THERAVANCE BIOPHARMA R&D IP, LLC, priority 2017, dated 2019).
Like-named read-outs stand apart in the source and are kept apart here.

Assays:
JAK2 = target: T1, JAK2 (Homo sapiens, UniProt O60674); test: Biochemical JAK2 kinase assay (LanthaScreen); details: for Ki: read-out: JAK 2 (pKi) (converted)
T1 construct: GST; purchased Life Technologies
Summary of the method: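 GST-tagged recombinant JAK2 pre-incubated 1 h at ambient temperature with compound and GFP-STAT1 peptide in HEPES pH 7.5/MgCl2 buffer, then ATP added for a 1 h reaction with 1% DMSO. TR-FRET read after EDTA and Tb-anti-pSTAT1 (pTyr701) addition; IC50 from 4-parameter fit, converted to pKi by Cheng-Prusoff.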

[1] = tested on: IL-2 stimulated pSTAT5 in Tall-1 T cells; test: Cellular JAK3 potency assay: inhibition of IL-2 stimulated pSTAT5 in Tall-1 T cells; format: cell-based, human; details: for IC50: Homo sapiens, read-out: Tall-1 (pIC50) (converted)
Summary of the method: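 In human Tall-1 T cells, IL-2 (300 ng/ml final, 30 min) drives STAT5 phosphorylation after a 1 h compound pretreatment. Lysates are assayed for pSTAT5 by AlphaLisa, and IC50 derived from signal versus concentration is expressed as pIC50.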

JAK1 = target: T2, JAK1 (Homo sapiens, UniProt P23458); test: Biochemical JAK1 kinase assay (LanthaScreen); details: for Ki: read-out: JAK 1 (pKi) (converted)
T2 construct: GST; purchased Life Technologies
T2 sequence (P23458 whole entry): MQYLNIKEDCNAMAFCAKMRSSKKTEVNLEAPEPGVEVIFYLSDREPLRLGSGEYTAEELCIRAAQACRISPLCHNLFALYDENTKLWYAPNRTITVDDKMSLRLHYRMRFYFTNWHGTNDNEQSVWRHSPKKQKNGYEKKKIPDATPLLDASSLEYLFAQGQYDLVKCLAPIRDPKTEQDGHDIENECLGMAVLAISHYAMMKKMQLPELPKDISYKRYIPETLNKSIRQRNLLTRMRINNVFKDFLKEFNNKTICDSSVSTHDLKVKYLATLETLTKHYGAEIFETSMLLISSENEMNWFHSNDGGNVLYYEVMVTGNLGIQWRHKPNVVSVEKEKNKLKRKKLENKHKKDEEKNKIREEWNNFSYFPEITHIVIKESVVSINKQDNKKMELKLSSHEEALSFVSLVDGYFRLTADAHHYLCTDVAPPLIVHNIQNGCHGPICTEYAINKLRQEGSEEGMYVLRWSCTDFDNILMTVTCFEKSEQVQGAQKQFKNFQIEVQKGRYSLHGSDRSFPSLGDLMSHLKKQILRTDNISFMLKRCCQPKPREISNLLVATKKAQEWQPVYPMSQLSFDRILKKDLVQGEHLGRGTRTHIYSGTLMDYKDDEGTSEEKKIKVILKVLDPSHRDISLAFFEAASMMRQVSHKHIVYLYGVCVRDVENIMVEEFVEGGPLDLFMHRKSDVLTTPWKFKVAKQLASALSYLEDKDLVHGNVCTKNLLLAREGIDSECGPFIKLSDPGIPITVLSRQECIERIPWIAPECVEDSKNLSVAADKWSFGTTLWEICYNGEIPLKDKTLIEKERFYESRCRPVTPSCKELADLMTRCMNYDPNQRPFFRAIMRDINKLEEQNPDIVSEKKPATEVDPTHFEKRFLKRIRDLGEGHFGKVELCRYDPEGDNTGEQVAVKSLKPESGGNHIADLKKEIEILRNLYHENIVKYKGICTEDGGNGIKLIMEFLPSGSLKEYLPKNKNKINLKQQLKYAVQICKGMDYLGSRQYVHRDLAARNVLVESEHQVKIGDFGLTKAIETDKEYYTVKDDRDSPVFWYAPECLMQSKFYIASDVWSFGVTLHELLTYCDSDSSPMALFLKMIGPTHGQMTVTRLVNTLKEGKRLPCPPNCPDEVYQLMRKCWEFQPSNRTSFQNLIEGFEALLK
Summary of the method: (§1)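 Recombinant GST-tagged JAK enzymes with GFP-STAT1 peptide substrate in 50 mM HEPES pH 7.5, 10 mM MgCl2, 1 mM EGTA, 0.01% Brij-35; compounds pre-incubated 1 h, then ATP added, 1 h reaction at ambient temperature. TR-FRET (Tb-anti-pSTAT1 pTyr701, 520/495 nm) after EDTA stop; IC50 by 4-parameter fit, converted to pKi via Cheng-Prusoff.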

JAK3 = target: T3, JAK3 (Homo sapiens, UniProt P52333); test: Biochemical JAK3 kinase assay (LanthaScreen); set-up: GST; purchased Life Technologies; details: for Ki: read-out: JAK 3 (pKi) (converted)
T3 sequence (P52333 1-1124): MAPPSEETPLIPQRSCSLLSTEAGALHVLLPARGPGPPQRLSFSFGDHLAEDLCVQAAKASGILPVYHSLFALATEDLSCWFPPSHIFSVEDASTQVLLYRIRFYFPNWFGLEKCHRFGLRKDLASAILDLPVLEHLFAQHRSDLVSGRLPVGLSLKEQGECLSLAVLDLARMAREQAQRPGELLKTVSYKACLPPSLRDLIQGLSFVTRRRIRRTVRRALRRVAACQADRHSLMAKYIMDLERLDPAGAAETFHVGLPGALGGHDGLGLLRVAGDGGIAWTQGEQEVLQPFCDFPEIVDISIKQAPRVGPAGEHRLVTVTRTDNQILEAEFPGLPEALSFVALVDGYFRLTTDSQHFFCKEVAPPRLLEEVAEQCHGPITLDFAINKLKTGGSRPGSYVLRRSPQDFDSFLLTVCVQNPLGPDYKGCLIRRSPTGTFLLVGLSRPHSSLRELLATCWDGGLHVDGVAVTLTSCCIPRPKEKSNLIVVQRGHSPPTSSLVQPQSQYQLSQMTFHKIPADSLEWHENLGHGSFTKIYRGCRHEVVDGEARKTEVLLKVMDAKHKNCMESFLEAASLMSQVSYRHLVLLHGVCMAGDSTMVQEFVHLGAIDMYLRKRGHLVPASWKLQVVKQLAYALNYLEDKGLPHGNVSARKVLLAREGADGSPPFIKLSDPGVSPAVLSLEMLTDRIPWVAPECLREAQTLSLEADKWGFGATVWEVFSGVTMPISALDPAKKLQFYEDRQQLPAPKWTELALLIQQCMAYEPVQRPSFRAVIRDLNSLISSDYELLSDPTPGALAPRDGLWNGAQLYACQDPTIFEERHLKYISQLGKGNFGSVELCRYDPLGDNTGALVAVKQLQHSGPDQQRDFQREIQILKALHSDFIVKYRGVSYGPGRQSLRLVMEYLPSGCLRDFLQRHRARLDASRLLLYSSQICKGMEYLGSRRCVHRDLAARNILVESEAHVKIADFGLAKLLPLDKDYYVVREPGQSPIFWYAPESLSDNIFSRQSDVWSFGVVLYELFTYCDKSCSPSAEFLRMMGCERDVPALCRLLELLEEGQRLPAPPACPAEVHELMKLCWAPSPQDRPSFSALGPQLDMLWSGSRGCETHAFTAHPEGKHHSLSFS
Summary of the method: as §1

Tyk2 = target: T4, Tyk2 (Homo sapiens, UniProt P29597); test: Biochemical Tyk2 kinase assay (LanthaScreen); details: for Ki: read-out: Tyk 2 (pKi) (converted)
T4 construct: GST; purchased Life Technologies
T4 sequence (P29597 whole entry): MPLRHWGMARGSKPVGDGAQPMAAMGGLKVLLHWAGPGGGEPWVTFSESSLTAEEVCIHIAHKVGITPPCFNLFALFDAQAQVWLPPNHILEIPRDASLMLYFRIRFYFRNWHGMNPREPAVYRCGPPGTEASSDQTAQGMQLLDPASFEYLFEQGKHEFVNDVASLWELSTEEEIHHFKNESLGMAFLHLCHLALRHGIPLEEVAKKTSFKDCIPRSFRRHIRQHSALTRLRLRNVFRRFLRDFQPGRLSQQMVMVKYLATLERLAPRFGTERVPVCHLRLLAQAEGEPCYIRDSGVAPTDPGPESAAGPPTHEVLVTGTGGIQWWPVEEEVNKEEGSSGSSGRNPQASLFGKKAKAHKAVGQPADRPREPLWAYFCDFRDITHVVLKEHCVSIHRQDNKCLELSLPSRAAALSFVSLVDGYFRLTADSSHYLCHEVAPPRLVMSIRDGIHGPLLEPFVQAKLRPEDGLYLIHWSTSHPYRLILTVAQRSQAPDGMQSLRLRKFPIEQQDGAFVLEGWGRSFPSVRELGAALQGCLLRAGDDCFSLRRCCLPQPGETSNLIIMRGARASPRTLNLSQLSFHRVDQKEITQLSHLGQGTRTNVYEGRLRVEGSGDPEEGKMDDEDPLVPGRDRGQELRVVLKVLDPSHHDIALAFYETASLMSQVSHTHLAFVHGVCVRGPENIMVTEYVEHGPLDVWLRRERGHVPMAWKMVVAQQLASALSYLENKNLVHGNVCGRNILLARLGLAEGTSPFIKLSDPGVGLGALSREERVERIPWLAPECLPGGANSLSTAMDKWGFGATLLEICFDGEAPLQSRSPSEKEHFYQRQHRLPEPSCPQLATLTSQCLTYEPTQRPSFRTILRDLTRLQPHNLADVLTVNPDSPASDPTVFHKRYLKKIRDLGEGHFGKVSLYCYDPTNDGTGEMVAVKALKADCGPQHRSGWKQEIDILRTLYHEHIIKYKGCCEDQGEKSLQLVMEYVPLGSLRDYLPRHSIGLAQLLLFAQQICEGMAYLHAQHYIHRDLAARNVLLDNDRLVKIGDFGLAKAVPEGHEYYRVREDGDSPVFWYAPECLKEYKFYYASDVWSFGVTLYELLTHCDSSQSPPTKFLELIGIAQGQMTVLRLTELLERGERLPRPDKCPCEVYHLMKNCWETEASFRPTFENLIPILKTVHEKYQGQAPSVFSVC
Summary of the method: as §1

[2] = TALL-1, IL-2 stimulated pSTAT5 in Tall-1 T cells
[3] = selectivity: difference of pKi JAK3 and pKi JAK1
[4] = IL-2 stimulated pSTAT5, Tall-1 T cells
[5] = selectivity JAK3 over JAK1, difference of pKi
[6] = IL-2 stimulated pSTAT5 in Tall-1 T cells

T1 sequence (O60674 whole entry): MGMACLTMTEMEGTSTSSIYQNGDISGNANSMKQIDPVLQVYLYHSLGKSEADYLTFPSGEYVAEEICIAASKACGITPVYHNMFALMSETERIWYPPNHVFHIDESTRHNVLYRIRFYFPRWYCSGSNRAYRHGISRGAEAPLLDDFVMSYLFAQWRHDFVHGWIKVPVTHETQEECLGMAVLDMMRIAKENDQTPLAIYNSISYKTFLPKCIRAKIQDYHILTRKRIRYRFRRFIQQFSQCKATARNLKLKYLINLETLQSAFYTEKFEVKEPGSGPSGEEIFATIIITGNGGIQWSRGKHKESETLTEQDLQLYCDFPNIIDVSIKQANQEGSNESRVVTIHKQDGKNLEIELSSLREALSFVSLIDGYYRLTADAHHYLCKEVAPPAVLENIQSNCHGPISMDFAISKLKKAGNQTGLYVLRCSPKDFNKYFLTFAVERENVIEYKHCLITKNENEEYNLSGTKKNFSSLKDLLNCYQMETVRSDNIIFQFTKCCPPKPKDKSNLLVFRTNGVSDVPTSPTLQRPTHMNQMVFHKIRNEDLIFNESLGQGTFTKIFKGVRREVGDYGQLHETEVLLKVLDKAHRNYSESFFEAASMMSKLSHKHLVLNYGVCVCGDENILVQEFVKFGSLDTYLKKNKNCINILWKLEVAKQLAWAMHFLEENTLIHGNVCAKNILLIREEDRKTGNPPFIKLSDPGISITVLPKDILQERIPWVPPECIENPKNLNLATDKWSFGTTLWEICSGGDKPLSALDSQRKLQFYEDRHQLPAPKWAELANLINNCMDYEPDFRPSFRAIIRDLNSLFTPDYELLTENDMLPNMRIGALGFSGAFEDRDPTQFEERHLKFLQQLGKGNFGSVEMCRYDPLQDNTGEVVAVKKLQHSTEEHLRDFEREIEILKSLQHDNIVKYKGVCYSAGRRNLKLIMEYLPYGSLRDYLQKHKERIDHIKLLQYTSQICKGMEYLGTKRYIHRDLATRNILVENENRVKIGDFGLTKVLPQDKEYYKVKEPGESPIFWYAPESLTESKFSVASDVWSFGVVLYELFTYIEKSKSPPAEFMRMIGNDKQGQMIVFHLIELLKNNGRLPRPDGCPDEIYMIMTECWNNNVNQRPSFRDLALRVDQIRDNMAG

Structure (SMILES)	Ki (JAK2) [nM]	IC50 [1, 2] [nM]	Ki (JAK1) [nM]	Ki (JAK3) [nM]	JAK3 (pKi)-JAK1 (pKi) (JAK3; [3])	Ki (Tyk2) [nM]	JAK 2 (pKi) (JAK2)	Tall-1 (pIC50) [1, 4]	JAK 1 (pKi) (JAK1)	JAK 3 (pKi) (JAK3)	JAK3 (pKi)-JAK1 (pKi) (JAK3; [5])	Tyk 2 (pKi) (Tyk2)	Tall-1 (pIC50) [1, 6]	IC50 ([1]; TALL-1, IL-2 stimulated pSTAT5, Tall-1 T cells) [nM]
C=CC(=O)N1CC(COc2cc(-c3ccc(O)cc3)cc3[nH]ncc23)C1 [Compound 3-1]	> 100	< 31.6	> 100	0.1 to 1	A (a value of 3 or above)	> 100								
COCCN(C/C=C/C(=O)N1CC(COc2cc(-c3ccc(O)cc3)cc3[nH]ncc23)C1)CCOC [Compound 3-120]	10 to 100	31.6 to 200	> 100	< 0.1	A (a value of 3 or above)	> 100								
C=CC(=O)N1CC(CSc2cc(-c3ccc(O)cc3)nc3[nH]ncc23)C1 [Compound 13-9]							E (a pKi value of 7 or below (Ki of 100 nM or above))	B (a pIC50 value between 6.7 (included) and 7.5 (IC50 between 200 nM and 32 nM))	E (a pKi value of 7 or below (Ki of 100 nM or above))	B (a pKi value between 9 and 10 (Ki between 1 nM and 0.1 nM))	A (a value of 3 or above)	E (a pKi value of 7 or below (Ki of 100 nM or above))		
C=CC(=O)N1CC[C@H](COc2nc(-c3ccc(O)c(Cl)c3)nc3[nH]ncc23)C1 [Compound 2-11]					A (a value of 3 or above)		E (a pKi value of 7 or below (Ki of 100 nM or above))		E (a pKi value of 7 or below (Ki of 100 nM or above))	B (a pKi value between 9 and 10 (Ki between 1 nM and 0.1 nM))		E (a pKi value of 7 or below (Ki of 100 nM or above))	B (a pIC50 value between 6.7 (included) and 7.5 (IC50 between 200 nM and 32 nM))	
C=CC(=O)N1CCC(COc2cc(-c3ccc(O)cc3)nc3[nH]ncc23)CC1 [Compound 14-2]							E (a pKi value of 7 or below (Ki of 100 nM or above))	B (a pIC50 value between 6.7 (included) and 7.5 (IC50 between 200 nM and 32 nM))	E (a pKi value of 7 or below (Ki of 100 nM or above))	A (a pKi value≥10 (Ki≤0.1 nM))	A (a value of 3 or above)	E (a pKi value of 7 or below (Ki of 100 nM or above))		
C=CC(=O)N1CC(C#N)(COc2nc(-c3ccc(O)cc3)cc3[nH]ncc23)C1 [Compound 3-103]	10 to 100	< 31.6	> 100	< 0.1	A (a value of 3 or above)	> 100								
C=CC(=O)N1CC(C#N)(C(=O)Nc2cc(-c3ccc(O)cc3)cc3[nH]ncc23)C1 [Compound 12-47]	> 100		> 100	0.1 to 1		> 100					A (a value of 3 or above)			31.6 to 200
C=CC(=O)N1CC(CC)(COc2nc(-c3ccc(O)c(F)c3)cc3[nH]ncc23)C1 [Compound 3-101]					A (a value of 3 or above)		D (a pKi value between 7 and 8 (Ki between 100 nM and 10 nM))		E (a pKi value of 7 or below (Ki of 100 nM or above))	A (a pKi value≥10 (Ki≤0.1 nM))		E (a pKi value of 7 or below (Ki of 100 nM or above))	A (a pIC50 value≥7.5 (IC50≤32 nM))	
C=CC(=O)N1CC(COc2cc(-c3ccc(O)c(Cl)c3)cc3[nH]ncc23)C1 [Compound 3-3]	> 100	< 31.6	> 100	0.1 to 1	A (a value of 3 or above)	> 100								
C=CC(=O)N1CC(CN(C)c2cc(-c3ccc(O)cc3)cc3[nH]ncc23)C1 [Compound 4-1]					A (a value of 3 or above)		E (a pKi value of 7 or below (Ki of 100 nM or above))		E (a pKi value of 7 or below (Ki of 100 nM or above))	B (a pKi value between 9 and 10 (Ki between 1 nM and 0.1 nM))		E (a pKi value of 7 or below (Ki of 100 nM or above))	B (a pIC50 value between 6.7 (included) and 7.5 (IC50 between 200 nM and 32 nM))	
CN(C)C/C=C/C(=O)N1CC(CSc2cc(-c3ccc(O)cc3)cc3[nH]ncc23)C1 [Compound 13-4]							D (a pKi value between 7 and 8 (Ki between 100 nM and 10 nM))	B (a pIC50 value between 6.7 (included) and 7.5 (IC50 between 200 nM and 32 nM))	E (a pKi value of 7 or below (Ki of 100 nM or above))	A (a pKi value≥10 (Ki≤0.1 nM))	A (a value of 3 or above)	E (a pKi value of 7 or below (Ki of 100 nM or above))		
C=CC(=O)N1CC(CC)(COc2nc(-c3ccc(O)cc3)nc3[nH]ncc23)C1 [Compound 3-63]					A (a value of 3 or above)		E (a pKi value of 7 or below (Ki of 100 nM or above))		E (a pKi value of 7 or below (Ki of 100 nM or above))	A (a pKi value≥10 (Ki≤0.1 nM))		E (a pKi value of 7 or below (Ki of 100 nM or above))	B (a pIC50 value between 6.7 (included) and 7.5 (IC50 between 200 nM and 32 nM))	
C=CC(=O)N1CC[C@H](Oc2cc(-c3ccc(O)cc3)nc3[nH]nc(C)c23)C1 [Compound 1-31]	> 100	31.6 to 200	> 100	< 0.1	A (a value of 3 or above)	> 100								
CCC1(COc2nc(-c3ccc(O)c(Cl)c3)cc3[nH]ncc23)CN(C(=O)/C=C/CN(C)C)C1 [Compound 3-99]					A (a value of 3 or above)		E (a pKi value of 7 or below (Ki of 100 nM or above))		E (a pKi value of 7 or below (Ki of 100 nM or above))	A (a pKi value≥10 (Ki≤0.1 nM))		E (a pKi value of 7 or below (Ki of 100 nM or above))	A (a pIC50 value≥7.5 (IC50≤32 nM))	
